These are literature values, as cited in patent publication US20070166227A1, “Crowned dithiocarbamate metal complexes and methods for their use” (priority 2004, published 2007).

Molecules are shown by their SMILES.

Consider `O=C(O)C1CCCN1C(=S)[S-].O=C(O)C1CCCN1C(=S)[S-].[Cu+2]` (centres unmarked) [Cu(ProDTC)2], for which the “binding affinity for NO: log β1” value (log β1) is recorded as 9.74. The “binding affinity for NO: log β2” value (log β2) is recorded as 15.44.
